Assay results published in patent US6020480A, “Caged NADP and NAD” (The Regents of the University of California, priority 1997, dated 2000).

What was measured:
[1] = Rates of photorelease from decay of the aci-nitro anions after photolysis; type: physicochemical
Experimental: The decay of aci-nitro intermediates was monitored at 402 nm or 418 nm with an Osram 50-W tungsten halogen lamp following excitation at 355 nm with a 55 mJ 8-ns pulse. Samples were prepared with 50 mM phosphate buffer, pH 7.0 or pH 6.0. […] Kinetic analysis was made by nonlinear, least-squares computer iteration. The averages of three trials are reported.

[2] = molecular target: T1, IDH, isocitrate dehydrogenase (Escherichia coli) (Escherichia coli, UniProt P08200); assay: Crystallographic analysis of caged compounds soaked into IDH crystals; type: binding; details: 250 mM soak
T1 construct: made in house
Excerpt: IDH was purified and crystallized as described previously by Reeves, H. C., Daumy, G. O., Lin, C. C., and Houston, M. (1972) Biochim. Biophys. Acta 258, 27-39; LaPorte, D. C., Thorsness, P. E., and Koshland, D. E., Jr. (1985) J. Biol. Chem. 260, 10563-10568; Hurley, J. H., Thorsness, P. E., Ramalingam, V., Helmers, N. H., Koshland, D. E., Jr., and Stroud, R. M. (1989) Proc. Natl. Acad. Sci. U.S.A 86, 8635-8639; and Stoddard, B. L., Dean, A., and Koshland, D. E., Jr. (1993) Biochemistry 32, 9310-9316.
The crystals were 0.5 to 1.5 mm along their longest edges, with a shorter third dimension of 0.2 to 0.3 mm; the crystals belong to space group P43 21 2. The unit cell dimensions prior to photolysis and after binding liberated substrate consistently refined to values within 0.5% of the previously published lengths during data processing.
A total of six crystallographic data sets were collected for this study. The structure of the enzyme was determined prior to photolysis after soaking with each compound, both in the presence and absence of bound isocitrate/Mg^+2. The structure of the bound photolysis product was also determined for both caged compounds in the absence of isocitrate/Mg^+2.
For each experiment, a crystal was transferred to 0.5 mL of a stabilization solution (generally 10% higher ammonium sulfate than that used to grow the crystals, buffered at pH 7.0 with HEPES) and soaked overnight in the dark with 250 mM of either 1 or 3. These experiments were performed for each compound in the presence and absence of 50 mM isocitrate and MgSO4. To protect the crystal from oxidative degradation after photolysis by the nitroso photoproducts, β-mercaptoethanol (10 mM) and DTT (10 mM) were also added to the mother liquor. The crystals were mounted under safe-light in quartz capillaries with mother liquor at either end of the capillary. The mount was sealed with mineral oil and paraffin wax. Initial data were collected at room temperature in the dark on an RAXIS imaging plate area detector with a Rigaku RU-200 rotating anode X-ray generator operating at 50 kV, 80 mA. A complete data set was collected from each crystal to 2.5 Å resolution using 20 1.5° rotations at 30 minutes per frame, followed by an additional 10 frames collected with the crystal on a 45° jig (Molecular Structure Corporation) for completeness. The total decay in X-ray intensities during collection of each of these four dark data sets was less than 5% of the initial structure average factor amplitudes.
Crystals that were soaked in caged 1 or 3 in the absence of isocitrate were each irradiated after the dark data collection, using a two minute exposure with a Cole Parmer 9741-50 quartz halogen light source with a 9741-03 high intensity 150 watt bulb and dual fiber optic light pipes and focusing lenses. […]

[3] = molecular target: T1, IDH, isocitrate dehydrogenase (Escherichia coli); assay: Turnover check by absorbance analysis of dissolved IDH crystals after extensive soaks; type: biochemical; details: crystals soaked in presence of bound isocitrate/Mg+2
Excerpt: The nicotinamide ring, its ribose sugar, and the first backbone phosphate are all completely disordered. […] The presence of the caging group on the carboxyamide nitrogen sterically prevents hydride transfer. […] After photolysis in the absence of isocitrate, liberated NADP 1002 is still bound to the active site as previously determined for unmodified NADP, as shown in FIG. C. The clear advantage of this compound as a photolytic trigger for time-resolved studies is that it is bound to the enzyme active site prior to photolysis, so that no additional diffusion or binding events are necessary to form the Michaelis complex.

[4] = absence of bound isocitrate/Mg+2, dark
[5] = presence of bound isocitrate/Mg+2, dark
[6] = 10 mM DTT, monitored at 418 nm, double exponential fit

T1 sequence (P08200 whole entry): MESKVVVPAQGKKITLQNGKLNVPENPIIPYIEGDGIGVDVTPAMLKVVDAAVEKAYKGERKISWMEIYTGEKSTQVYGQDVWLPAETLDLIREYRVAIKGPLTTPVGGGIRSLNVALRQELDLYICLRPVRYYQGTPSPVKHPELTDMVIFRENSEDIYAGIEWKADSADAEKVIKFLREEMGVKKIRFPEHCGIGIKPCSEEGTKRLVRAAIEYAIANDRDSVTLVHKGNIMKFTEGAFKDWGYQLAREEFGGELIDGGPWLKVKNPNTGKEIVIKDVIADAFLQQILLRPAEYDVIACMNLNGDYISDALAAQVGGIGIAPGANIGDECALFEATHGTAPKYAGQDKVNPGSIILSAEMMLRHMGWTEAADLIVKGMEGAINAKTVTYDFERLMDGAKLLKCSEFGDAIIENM

Row | Compound | fast decay component ([1]; DTT concentration not stated) | binding to IDH active site before photolysis [2, 4] | binding to IDH active site before photolysis [2, 5] | aci-nitro transient decay rate, fast component [1, 6] | aci-nitro transient decay rate, slow component [1, 6] | aci-nitro transient decay rate, fast component ([1]; 100 mM DTT, 418 nm) | aci-nitro transient decay rate, slow component ([1]; 100 mM DTT, 418 nm) | first-order decay rate k of transient (rate of photorelease) ([1]; 50 mM phosphate buffer, pH 7.0) | rate of photorelease ([1]; sample pH 6) | IDH turnover with caged cofactor before photolysis [3]
1 | P-[1-(4,5-Dimethoxy-2-nitrophenyl)ethyl] nicotinamide adenine dinucleotide [compound 2] | 17000 s⁻¹ |  |  |  |  |  |  |  |  | 
2 | COc1cc(C(C)OP(=O)(O)O[C@@H]2[C@H](O)[C@@H](COP(=O)(O)OP(=O)([O-])OC[C@H]3O[C@@H]([n+]4cccc(C(N)=O)c4)[C@H](O)[C@@H]3O)O[C@H]2n2cnc3c(N)ncnc32)c([N+](=O)[O-])cc1OC (stereo partly drawn) [compound 1, P^2' -[1-(4,5-Dimethoxy-2-nitrophenyl)ethyl]nicotinamide adenine dinucleotide phosphate] |  | fails to bind | fails to bind | 13000 s⁻¹ | 93 s⁻¹ | 18000 s⁻¹ | 480 s⁻¹ |  |  | 
3 | Nc1ncnc2c1ncn2[C@@H]1O[C@H](COP(=O)(O)OP(=O)([O-])OC[C@H]2O[C@@H]([n+]3cccc(C(=O)NC(C(=O)O)c4ccccc4[N+](=O)[O-])c3)[C@H](O)[C@@H]2O)[C@@H](O)[C@H]1OP(=O)(O)O (stereo partly drawn) [compound 3, N-(α-Carboxy-2-nitrobenzyl)-nicotinamide adenine dinucleotide phosphate] |  | binds to the enzyme | both backbone phosphates of the caged cofactor are well ordered |  |  |  |  | 30 s⁻¹ | 42 s⁻¹ | turnover does not occur
